≈ marks a conversion by molar mass, not a printed value.
Assays:
Format in all cases: functional
Vibrio anguillarum [1] = assay: Antimicrobial activity against Vibrio anguillarum serotype O2b 04/09/363-5036 isolate containing gyrA and parC quinolone resistance mutations from Atlantic cod after 5 days by microplate broth dilution method; settings: 120 h
Vibrio anguillarum [2] = assay: Antimicrobial activity against Vibrio anguillarum serotype O2b 04/09/363-5034 isolate containing gyrA and parC quinolone resistance mutations from Atlantic cod after 5 days by microplate broth dilution method; settings: 120 h
Vibrio anguillarum [3] = assay: Antimicrobial activity against Vibrio anguillarum serotype O2b 04/09/422-5063 isolate containing gyrA and parC quinolone resistance mutations from Atlantic cod after 5 days by microplate broth dilution method; settings: 120 h
Vibrio anguillarum [4] = assay: Antimicrobial activity against Vibrio anguillarum serotype O2b 04/09/367-5042 isolate containing gyrA and parC quinolone resistance mutations from Atlantic cod after 5 days by microplate broth dilution method; settings: 120 h
Vibrio anguillarum [5] = assay: Antimicrobial activity against Vibrio anguillarum serotype O2b 04/09/367-5043 isolate containing gyrA position 83 Ser-Ile substitution mutation from Atlantic cod after 5 days by microplate broth dilution method; settings: 120 h
Vibrio anguillarum [6] = assay: Antimicrobial activity against Vibrio anguillarum serotype O2b 04/09/494-5106 isolate containing parC position 83 Ser-Ile substitution mutation from Atlantic cod after 5 days by microplate broth dilution method; settings: 120 h
Vibrio anguillarum [7] = assay: Antimicrobial activity against Vibrio anguillarum serotype O2b 04/09/363-5036 isolate containing gyrA and parC quinolone resistance mutations from Atlantic cod at 30 ug by disc diffusion assay; settings: read-out: IZ
Vibrio anguillarum [8] = assay: Antimicrobial activity against Vibrio anguillarum serotype O2b 04/09/363-5034 isolate containing gyrA and parC quinolone resistance mutations from Atlantic cod at 30 ug by disc diffusion assay; settings: read-out: IZ
Vibrio anguillarum [9] = assay: Antimicrobial activity against Vibrio anguillarum serotype O2b 04/09/422-5063 isolate containing gyrA and parC quinolone resistance mutations from Atlantic cod at 30 ug by disc diffusion assay; settings: read-out: IZ
Vibrio anguillarum [10] = assay: Antimicrobial activity against Vibrio anguillarum serotype O2b 04/09/367-5042 isolate containing gyrA and parC quinolone resistance mutations from Atlantic cod at 30 ug by disc diffusion assay; settings: read-out: IZ
Vibrio anguillarum [11] = assay: Antimicrobial activity against Vibrio anguillarum serotype O2b 04/09/367-5043 isolate containing gyrA position 83 Ser-Ile substitution mutation from Atlantic cod at 30 ug by disc diffusion assay; settings: read-out: IZ
Vibrio anguillarum [12] = assay: Antimicrobial activity against Vibrio anguillarum serotype O2b 04/09/494-5106 isolate containing parC position 83 Ser-Ile substitution mutation from Atlantic cod at 30 ug by disc diffusion assay; settings: read-out: IZ
Vibrio anguillarum [13] = assay: Antimicrobial activity against Vibrio anguillarum BAF33487 containing parC position 90 Glu-Gly substitution mutation

Row | SMILES | MIC (Vibrio anguillarum [1]) [µg/mL] | MIC (Vibrio anguillarum [2]) [µg/mL] | MIC (Vibrio anguillarum [3]) [µg/mL] | MIC (Vibrio anguillarum [4]) [µg/mL] | MIC (Vibrio anguillarum [5]) [µg/mL] | MIC (Vibrio anguillarum [6]) [µg/mL] | zone of inhibition at 30 µg/disc (Vibrio anguillarum [7]) [mm] | zone of inhibition at 30 µg/disc (Vibrio anguillarum [8]) [mm] | zone of inhibition at 30 µg/disc (Vibrio anguillarum [9]) [mm] | zone of inhibition at 30 µg/disc (Vibrio anguillarum [10]) [mm] | zone of inhibition at 30 µg/disc (Vibrio anguillarum [11]) [mm] | zone of inhibition at 30 µg/disc (Vibrio anguillarum [12]) [mm] | MIC (Vibrio anguillarum [13]) [µg/mL]
1 | CCN1CCN(c2cc3c(cc2F)c(=O)c(C(=O)O)cn3C2CC2)CC1 [ENROFLOXACIN] | ≤ 0.03 | ≤ 0.03 | 0.5 (≈ 1.39 µM) | 0.25 (≈ 0.696 µM) | 0.25 (≈ 0.696 µM) | 1 (≈ 2.78 µM) |  |  |  |  |  |  | 
2 | CC1CCc2cc(F)cc3c(=O)c(C(=O)O)cn1c23 (stereo not given) [FLUMEQUINE] |  |  |  |  |  |  | 52 | 54 | 37 | 36 | 37 | 17 | 
3 | CCn1cc(C(=O)O)c(=O)c2ccc(C)nc21 [NALIDIXIC ACID] | ≤ 1 | ≤ 1 | 16 (≈ 68.9 µM) | 16 (≈ 68.9 µM) | 8 (≈ 34.4 µM) | > 128 |  |  |  |  |  |  | 
4 | CCn1cc(C(=O)O)c(=O)c2cc3c(cc21)OCO3 [OXOLINIC ACID] | ≤ 0.0001 |  | 0.06 (≈ 0.23 µM) | 0.06 (≈ 0.23 µM) | 0.06 (≈ 0.23 µM) | 16 (≈ 61.2 µM) | 47 | 49 | 30 | 27 | 28 | 0 | 6.25 (≈ 23.9 µM)

Reference: ChEMBL document CHEMBL1157372, “gyrA and parC Mutations and associated quinolone resistance in Vibrio anguillarum serotype O2b strains isolated from farmed Atlantic cod (Gadus morhua) in Norway” (2007)
